Results published in article PMC5177629, “Selective Estrogen Receptor Modulators: Cannabinoid Receptor Inverse Agonists with Differential CB1 and CB2 Selectivity” (Frontiers in Pharmacology, 2016).
Read-outs that look alike come from different tables or passages of the source.

How the values were obtained:
[1] = molecular target: T1, human cannabinoid type-2 receptors (hCB2) (Homo sapiens, UniProt P34972); assay: Adenylyl cyclase assay (forskolin-stimulated cAMP), intact CHO-hCB2 cells; format: cell-based; conditions: for Emax: elevation of cAMP, read-out: EMAX, Intracellular [3H]cAMP; for EC50: increase of cAMP, 10 μM forskolin, read-out: EC50, Intracellular [3H]cAMP
T1 construct: expressed in transfected cells; host or cells: CHO cells (CHO-hCB2), membranes or intact cells
Experimental: Briefly, cells cultured between passages 4 and 15 were seeded into 24-well plates at a concentration of 6.5 million cells per plate and incubated overnight in a humidified incubator maintained at 37°C and 5% CO2. Growth media was removed the next day and replaced with media containing […] [^3H]adenine, 0.9g/L NaCl, and 0.5 mM isobutyl-methyl-xanthine (IBMX) for 2–3 h. Radioactive media was then removed and each well treated with 0.5 ml of varying concentrations of SERM compounds in a Krebs-Ringer-HEPES solution (10 mM HEPES, 110 mM NaCl, 25 mM Glucose, 55 mM Sucrose, 5 mM KCl, 1 mM MgCl2, 1.8 mM CaCl2, pH 7.4) containing 0.5 mM IBMX and 10 μM forskolin. Plates were then floated in a 37°C water bath for 15 min before reactions were terminated by addition of 50 μL of 2.2 N HCl to each well.
Statistical analyses were conducted by utilizing GraphPad Prism v6.0g (GraphPad Software, Inc.; San Diego, CA, USA). IC50 values from competition receptor binding curves were derived by non-linear regression. […] Non-linear regression analysis of concentration-effect curves was also used to determine potency (ED50 or IC50) and efficacy (Emax or Imax) for modulation of GTPγS and adenylyl cyclase activity, respectively. All IC50, EC50, Ki, and Kb values were converted to pEC50, pIC50, pKi, and pKb values in order to permit use of parametric statistical analyses. For all experiments comparing three or more values, an one-way ANOVA was employed, followed by Dunnett’s or Tukey’s post hoc tests. For comparisons of two values, an unpaired t-test was utilized. To determine significant radioligand displacement or modulation of G-protein activity compared to basal levels, a one-sample t-test was employed.
To provide a second measure of intrinsic activity, the ability of SERMs to modulate intracellular levels of cAMP in intact cells was examined (Figure 6). CBRs couple to Gi/Go-proteins, and thus cannabinoid agonists inhibit activity of the downstream intracellular effector adenylyl cyclase, reducing intracellular cAMP levels.

[2] = molecular target: T1, human cannabinoid type-2 receptors (hCB2); assay: Competition receptor binding with [3H]CP-55,940, CHO-hCB2 membranes; conditions: for displacement of [3H]CP-55,940 from hCB2Rs: single 1 μM concentration, 0.2 nM [3H]CP-55,940, CHO-hCB2
Experimental: Membrane homogenates were prepared for competition receptor binding and [^35S]GTPγS binding studies by using pellets previously frozen of CHO-hCB1 or CHO-hCB2 cells as described in ([Franks et al., 2014]). In short, pellets were thawed on ice, combined in a 40 ml glass Dounce homogenizer and homogenized in 20 ml of cold buffer (50 mM HEPES at pH 7.4, 3 mM MgCl2, and 1 mM EGTA) using 10 strokes. Homogenates were then centrifuged at 40,000 × g for 10 min at 4°C. After discarding the supernatant, pellets were homogenized and centrifuged twice more. Final pellets were re-suspended in ice-cold 50 mM HEPES, pH 7.4, aliquoted and stored at -80°C for future use. Protein concentration was determined the same day, prior to freezing, using BCA^TM Protein Assay (Thermo Fisher Scientific, Waltham, MA, USA).
The final volume of each sample was 1 ml, containing 50 mM Tris-HCl buffer (pH 7.4), 0.05% bovine serum albumin, 5 mM MgCl2, increasing concentrations of non-radioactive competing SERM ligands, and either 100 μg of CHO-hCB1 or 50 μg of CHO-hCB2 membrane homogenates. Non-specific binding was defined by radioactivity remaining in the presence of 1 μM of the non-radioactive CB1/CB2 agonist WIN-55,212-2. Each sample condition was performed in triplicate and allowed to reach equilibrium at room temperature for 90 min. Reactions were terminated by rapid vacuum filtration through Whatman GF/B glass fiber filters (Brandel, Inc.), followed by four 4 ml washes of ice-cold filtration buffer (50 mM Tris at pH 7.4 and 0.05% BSA). Filter punches of individual samples were placed in scintillation vials containing 4 mls of ScintiverseTM BD cocktail scintillation fluid (Fisher Scientific, Pittsburg, PA, USA). Final counts were determined using liquid scintillation spectrophotometry (Tri Carb 2100 TR Liquid Scintillation Analyzer, Packard Instrument Company, Meriden, CT, USA) after overnight incubation.
Statistical analyses were conducted by utilizing GraphPad Prism v6.0g (GraphPad Software, Inc.; San Diego, CA, USA). IC50 values from competition receptor binding curves were derived by non-linear regression. Experimental IC50 values were converted to Ki values (a measure of receptor affinity) by using the Cheng–Prusoff equation ([Cheng and Prusoff, 1973]). Non-linear regression analysis of concentration-effect curves was also used to determine potency (ED50 or IC50) and efficacy (Emax or Imax) for modulation of GTPγS and adenylyl cyclase activity, respectively. All IC50, EC50, Ki, and Kb values were converted to pEC50, pIC50, pKi, and pKb values in order to permit use of parametric statistical analyses. For all experiments comparing three or more values, an one-way ANOVA was employed, followed by Dunnett’s or Tukey’s post hoc tests. For comparisons of two values, an unpaired t-test was utilized. To determine significant radioligand displacement or modulation of G-protein activity compared to basal levels, a one-sample t-test was employed.
For initial comparison of potential SERM binding to CBRs, 14 commercially available compounds from 5 structurally distinct classes (Figure 1) were subjected to a radioligand binding screen (Figure 2).

[3] = Ki, [3H]CP-55,940 Binding CHO-hCB2, CHO-hCB2 membranes, Cheng-Prusoff from IC50

T1 sequence (P34972 whole entry): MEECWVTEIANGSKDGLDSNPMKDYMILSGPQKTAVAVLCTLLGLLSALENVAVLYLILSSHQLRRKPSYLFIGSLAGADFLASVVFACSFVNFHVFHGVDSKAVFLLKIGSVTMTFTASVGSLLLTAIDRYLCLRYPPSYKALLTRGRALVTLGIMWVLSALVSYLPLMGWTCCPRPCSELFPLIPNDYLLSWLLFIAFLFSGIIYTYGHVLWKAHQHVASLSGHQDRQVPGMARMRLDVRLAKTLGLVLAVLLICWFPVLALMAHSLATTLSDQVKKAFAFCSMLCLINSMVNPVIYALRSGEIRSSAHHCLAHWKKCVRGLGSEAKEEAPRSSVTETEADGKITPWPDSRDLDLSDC

OCCOc1ccc(/C(=C(/CCCl)c2ccccc2)c2ccccc2)cc1 [OSP, ospemifene]
Emax [1]: 279 ± 17%
EC50 [1]: 1440 nM
Ki [2, 3]: 3720 nM
Ki ([2]; affinity for hCB2Rs (Ki), CHO-hCB2 membranes): 1000 to 4000 nM

O=C(c1ccc(OCCN2CCCCC2)cc1)c1c(-c2ccc(O)cc2)sc2cc(O)ccc12 [RAL, raloxifene]
Emax [1]: 234 ± 21%
EC50 [1]: 873 nM
Ki [2, 3]: ~200 nM
Ki ([2]; pKi, [3H]CP-55,940 Binding CHO-hCB2, CHO-hCB2 membranes, mean ± SEM): 240 nM
displacement of [3H]CP-55,940 from hCB2Rs [2]: 80%

Cc1c(-c2ccc(O)cc2)n(Cc2ccc(OCCN3CCCCCC3)cc2)c2ccc(O)cc12 [BAZ, bazedoxifene]
Emax [1]: 352 ± 14%
EC50 [1]: 1980 nM
Ki ([2]; pKi, [3H]CP-55,940 Binding CHO-hCB2): 254 nM
displacement of [3H]CP-55,940 from hCB2Rs [2]: 73%

COc1ccc2c(c1)CCC(c1ccccc1)=C2c1ccc(OCCN2CCCC2)cc1 [NAF, nafoxidine]
Ki ([2]; CHO-hCB2 membranes, read-out: affinity for hCB2Rs (Ki)): 1000 to 4000 nM
Ki [2, 3]: 1300 nM
